Earlier results as cited in article PMC12307812 (Nature Communications, 2025).

tested on: TMPRSS2; parameters: method as in earlier work; details: top 50 compounds by AUC, Figure 2 source data; cited from earlier work

In order of falling “max response (%)” value:
1. Cc1cc(C)cc(OCC2CNC(=O)O2)c1 (centres unmarked) [NCGC00095116-05]  -5.458%
2. CCCNCC(O)COc1ccccc1C(=O)CCc1ccccc1 (centres unmarked) [NCGC00015819-15]  -5.725%
3. CC(C)N(CCC(C(N)=O)(c1ccccc1)c1ccccn1)C(C)C (centres unmarked) [NCGC00015358-18]  -7.9771%
4. CCOC(=O)COc1ccc2c(=O)cc(-c3ccccc3)oc2c1 [NCGC00182622-03]  -10.6731%
5. Clc1cccc(C(c2ccc3nc[nH]c3c2)n2ccnc2)c1 (centres unmarked) [NCGC00181034-03]  -10.9542%
6. CCOC(=O)Cn1cccc1-c1nc(-c2ccc(OC)cc2)c(-c2ccc(OC)cc2)s1 [NCGC00182996-01]  -15.3817%
7. Nc1nc2ccc(OC(F)(F)F)cc2s1 [NCGC00015882-15]  -16.2214%
8. O=C(c1ccc(F)cc1)C1CCN(CCn2c(=O)[nH]c3ccccc3c2=O)CC1 [NCGC00021146-09]  -16.7557%
9. O=C1N=C([O-])CN1/N=C/c1ccc(-c2ccc([N+](=O)[O-])cc2)o1.[Na+] [NCGC00024622-05]  -21.3359%
10. CC1(C)O[C@@H]2C[C@H]3[C@@H]4CCC5=CC(=O)C=C[C@]5(C)[C@@]4(F)[C@@H](O)C[C@]3(C)[C@]2(C(=O)CO)O1 [NCGC00023193-06]  -22.5573%
11. CS(=O)(=O)O.C[C@H](N)C(=O)N[C@@H](C)C(=O)NC1[C@H]2CN(c3nc4c(cc3F)c(=O)c(C(=O)O)cn4-c3ccc(F)cc3F)C[C@@H]12 (some centres unmarked) [NCGC00261969-01]  -25.1766%
